Data published in patent US6479628B1, “Methods and materials relating to IMPDH and GMP production” (Arch Development Corporation, priority 1988, dated 2002).

Assays:
V79 cells = assay: Growth of control and MNNG-treated V79 cells incubated with MPA; assay type: cell-based, Chinese hamster; conditions: untreated 5.0±0.3
parental V79 cells = assay: Resistance of parental cells to MPA cytotoxicity; assay type: cell-based, Chinese hamster
[1] = test system: VM1 through VM4 variants of V79 cells; assay: Resistance of stepwise-selected cell variants to MPA cytotoxicity; assay type: cell-based, Chinese hamster
Procedure: According to the present invention, the resistance level of one of these cell variants was further increased by a stepwise selection in the presence of increasing concentrations of MPA. After adaptation to the higher concentration of MPA, the cells were seeded in medium containing an increased concentration of MPA at 200 cells per 60-mm petri dish, and MPA-resistant colonies were isolated 8 days later.

[2] = test system: IMP1 cell clone (transfected V15 hamster cells); conditions: mycophenolic acid 2 μg/mL in culture medium
Procedure: After introduction of the construct into the hamster cells, mycophenolic acid (2 μg/mL) was added to the culture medium to select for those cells that had integrated the construct into their genetic material. Those cells that have integrated the construct into their genetic material produce the IMPDH enzyme and are therefore resistant to the cytotoxic effects of mycophenolic acid.
[Dulbecco's modified MEM containing 5% fetal bovine serum, aminopterin (2 μg/mL), and mycophenolic acid (25 μg/mL), and supplemented with hypoxanthine (15 μg/mL), thymidine (10 μg/mL), and xanthine (250 μg/mL)]. The ability of the cells to grow in the selective medium is attributable to the production of the E. coli gpt enzyme, which catalyzes the production of xanthine monophosphate from the reaction of xanthine and phosphoribosyl pyroposphate. Presence of the enzyme compensates for the purine de novo synthetic block imposed by the presence of aminopterin and MPA.

E. coli IMPDH enzyme = E. coli IMPDH enzyme (Escherichia coli, UniProt P0ADG7); conditions: unlike mammalian cell enzymes; cited from earlier work
Sequence of E. coli IMPDH enzyme (P0ADG7 whole entry): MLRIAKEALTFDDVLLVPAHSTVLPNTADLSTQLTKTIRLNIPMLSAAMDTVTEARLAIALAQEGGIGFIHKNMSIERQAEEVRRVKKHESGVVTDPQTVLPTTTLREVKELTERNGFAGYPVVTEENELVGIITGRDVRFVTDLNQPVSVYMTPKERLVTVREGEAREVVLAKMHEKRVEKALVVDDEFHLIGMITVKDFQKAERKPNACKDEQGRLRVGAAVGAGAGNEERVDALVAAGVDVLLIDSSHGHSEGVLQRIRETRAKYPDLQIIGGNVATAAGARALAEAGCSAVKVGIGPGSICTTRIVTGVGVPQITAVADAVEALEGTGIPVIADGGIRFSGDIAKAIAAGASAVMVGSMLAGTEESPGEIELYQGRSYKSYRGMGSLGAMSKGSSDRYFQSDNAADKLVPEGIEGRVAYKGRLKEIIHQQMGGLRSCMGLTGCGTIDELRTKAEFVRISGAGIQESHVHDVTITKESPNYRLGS

[3] = biological target: purified Chinese hamster IMPDH (Cricetulus griseus, UniProt P12269); assay: Kinetic studies of purified IMPDH (IMP-dependent NAD reduction, absorbance at 340 nm)
Sequence of purified Chinese hamster IMPDH (P12269 whole entry): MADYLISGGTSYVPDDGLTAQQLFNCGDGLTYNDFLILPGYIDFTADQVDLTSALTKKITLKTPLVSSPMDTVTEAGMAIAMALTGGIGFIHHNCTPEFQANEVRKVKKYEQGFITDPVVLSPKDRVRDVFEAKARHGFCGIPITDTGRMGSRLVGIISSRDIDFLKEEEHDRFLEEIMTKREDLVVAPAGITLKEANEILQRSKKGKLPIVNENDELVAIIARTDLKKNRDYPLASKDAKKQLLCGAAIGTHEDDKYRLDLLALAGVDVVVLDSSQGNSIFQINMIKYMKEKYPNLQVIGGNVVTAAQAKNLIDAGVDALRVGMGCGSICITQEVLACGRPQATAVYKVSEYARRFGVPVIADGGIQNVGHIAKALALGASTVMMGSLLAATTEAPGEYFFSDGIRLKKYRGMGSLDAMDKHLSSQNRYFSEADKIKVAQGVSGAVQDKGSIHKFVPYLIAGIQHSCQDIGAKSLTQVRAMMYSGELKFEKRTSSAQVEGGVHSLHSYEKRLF
Procedure: Kinetic studies were carried out by varying the substrate conditions. In all cases, linear reciprocal plots were defined by simple regression analysis of the data.

In the case of `COc1c(C)c2c(c(O)c1C/C=C(\C)CCC(=O)O)C(=O)OC2` [MPA, mycophenolic acid], the “cells per Petri dish after 5 days of growth, mean (±SD)” value (V79 cells; MPA at 0.1 μg/mL) is reported as 1.4±0.2 ×10^6 cells per Petri dish, the “cells per Petri dish after 5 days of growth, mean (±SD)” value (V79 cells; MPA at 0.3 μg/mL) is reported as 0.2±0.05 ×10^6 cells per Petri dish and the “MPA concentration to which cells are resistant” value (from here on “MPA concentration”) (parental V79 cells) is reported as 0.1 µg/mL. For the same compound, the “MPA concentration” value ([1]; VM1 variant) was 5 µg/mL, the “MPA concentration” value ([1]; VM2 variant) was 10 µg/mL and the “MPA concentration” value ([1]; VM3 variant) was 25 µg/mL. For the same compound, the “MPA concentration” value ([1]; VM4 variant) was 50 µg/mL, the “resistance of cell clone to cytotoxic effects” value [2] was “resistant” and the “sensitivity to the inhibitory effect” value (E. coli IMPDH enzyme) was “insensitive”. The Ki ([3]; sensitivity of Chinese hamster enzyme to MPA) was “nanomolar range”.

`NC(=O)c1ccc[n+]([C@@H]2O[C@H](COP(=O)([O-])OP(=O)(O)OC[C@H]3O[C@@H](n4cnc5c(N)ncnc54)[C@H](O)[C@@H]3O)[C@@H](O)[C@H]2O)c1` [NAD] gave a Km ([3]; substrate of Chinese hamster enzyme, linear reciprocal plots) of 29 µM.
